Assays:
[1] = target: T1, transmembrane allosteric modulatory sites of mGluR5 receptors (Rattus norvegicus, UniProt P31424); assay: [3H]-MPEP binding assay in rat cortical membranes; conditions: displacement of radioligand, read-out: mGluR5_M_MPEP_r_CTX IC50
T1 construct: from tissue; host or cells: cortex of male Sprague-Dawley rats, membrane preparation
Protocol: Binding Assays for the Characterization of mGluR5 Antagonists
Preparation of Rat Cortical Membranes:
Male Sprague-Dawley rats (200-250 g) are decapitated and their brains are removed rapidly. The cortex is dissected and homogenized in 20 volumes of ice-cold 0.32 M sucrose using a glass-Teflon homogenizer. The homogenate is centrifuged at 1000×g for 10 minutes. The pellet is discarded and the supernatant centrifuged at 20,000×g for 20 minutes. The resulting pellet is re-suspended in 20 volumes of distilled water and centrifuged for 20 minutes at 8000×g. Then the supernatant and the buffy coat are centrifuged at 48,000×g for 20 minutes in the presence of 50 mM Tris-HCl, pH 8.0. The pellet is then re-suspended and centrifuged two to three more times at 48,000×g for 20 minutes in the presence of 50 mM Tris-HCl, pH 8.0. All centrifugation steps are carried out at 4° C. After resuspension in 5 volumes of 50 mM Tris-HCl, pH 8.0 the membrane suspension is frozen rapidly at −80° C.
On the day of assay the membranes are thawed and washed four times by resuspension in 50 mM Tris-HCl, pH 8.0 and centrifugation at 48,000×g for 20 minutes and finally re-suspended in 50 mM Tris-HCl, pH 7.4. The amount of protein in the final membrane preparation (500-700 μg/ml) is determined according to the method of Lowry (Lowry O. H. et al. 1951. J. Biol. Chem. 193, 256-275).
The incubations are continued at room temperature for 60 minutes (equilibrium is achieved under the conditions used). […] Incubations are terminated using a Millipore filter system. The samples are rinsed twice with 4 ml of ice-cold assay buffer over glass fibre filters (Schleicher & Schuell, Germany) under a constant vacuum. Following separation and rinse, the filters are placed into scintillation liquid (5 ml Ultima Gold, Perkin Elmer, Germany) and radioactivity retained on the filters is determined with a conventional liquid scintillation counter (Can berra Packard, Germany).

mGluR5 receptors = target: T2, mGluR5 receptors (Rattus norvegicus, UniProt P31424); assay: Cytosolic calcium studies with astrocytes (astrocyte culture test, FLIPR); format: cell-based; conditions: rat primary astrocytes; L-quisqualate 100 nM; read-out: mGluR5_FLIPR_r_rpA— IC50
T2 construct: endogenous in cells; host or cells: primary astrocytes from neocortex of Sprague-Dawley rat pups (2-4 d old)
T2 sequence (P31424 21-1203): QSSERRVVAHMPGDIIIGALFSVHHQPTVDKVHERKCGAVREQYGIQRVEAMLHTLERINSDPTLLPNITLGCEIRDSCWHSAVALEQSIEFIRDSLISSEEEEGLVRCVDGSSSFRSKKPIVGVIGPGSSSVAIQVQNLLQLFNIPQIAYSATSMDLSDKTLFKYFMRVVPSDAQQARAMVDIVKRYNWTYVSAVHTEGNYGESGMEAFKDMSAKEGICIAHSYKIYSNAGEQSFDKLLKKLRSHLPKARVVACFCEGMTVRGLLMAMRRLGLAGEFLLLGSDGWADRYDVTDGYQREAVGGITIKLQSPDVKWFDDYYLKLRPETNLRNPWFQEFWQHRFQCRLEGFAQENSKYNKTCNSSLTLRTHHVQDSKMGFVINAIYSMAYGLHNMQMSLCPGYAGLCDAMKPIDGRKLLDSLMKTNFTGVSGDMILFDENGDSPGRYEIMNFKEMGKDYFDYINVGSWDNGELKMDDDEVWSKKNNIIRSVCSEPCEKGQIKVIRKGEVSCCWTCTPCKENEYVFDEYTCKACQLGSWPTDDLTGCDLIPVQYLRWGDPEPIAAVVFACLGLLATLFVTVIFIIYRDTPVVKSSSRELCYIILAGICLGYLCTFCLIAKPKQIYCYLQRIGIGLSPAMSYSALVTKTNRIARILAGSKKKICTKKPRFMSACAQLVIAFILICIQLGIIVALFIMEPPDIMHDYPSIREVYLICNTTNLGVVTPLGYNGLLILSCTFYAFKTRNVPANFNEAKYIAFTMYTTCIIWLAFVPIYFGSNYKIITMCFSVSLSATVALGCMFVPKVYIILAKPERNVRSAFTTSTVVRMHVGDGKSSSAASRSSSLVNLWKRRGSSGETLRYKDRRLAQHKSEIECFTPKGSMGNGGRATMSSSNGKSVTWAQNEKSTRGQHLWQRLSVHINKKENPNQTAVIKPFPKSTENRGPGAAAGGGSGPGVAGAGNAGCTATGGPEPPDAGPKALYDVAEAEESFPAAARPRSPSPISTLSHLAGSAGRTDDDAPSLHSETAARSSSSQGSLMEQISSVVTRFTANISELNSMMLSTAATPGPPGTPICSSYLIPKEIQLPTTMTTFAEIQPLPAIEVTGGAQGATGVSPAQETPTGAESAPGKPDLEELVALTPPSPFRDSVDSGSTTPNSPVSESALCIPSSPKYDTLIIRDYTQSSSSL
Protocol: Primary astrocyte cultures are prepared from cortices of newborn rats as described by Booher and Sensenbrenner (1972, Neurobiology 2(3):97-105). Briefly, Sprague-Dawley rat pups (2-4 d old) are decapitated and neocortices are dissected, disintegrated with a nylon filter (pore size 80 μm) and carefully triturated. The cell suspension is plated on poly-D-lysine pre-coated flasks (Costar, Netherlands) and cultivated in Dulbecco's Modified Eagle's Medium (DMEM, Invitrogen, Germany) supplemented with 10% foetal calf serum (FCS, Sigma, Germany), 4 mM glutamine and 50 μg/ml gentamycin (both Biochrom, Germany) at 37° C. in a humidified atmosphere of 5% CO2/95% air for 7 d with exchanging the medium at day 2 and 6.
After 7 days in vitro (DIV), cells are shaken overnight at 250 rpm to remove oligodendrocytes and microglia. The next day, astrocytes are rinsed twice with CMF-PBS (calcium- and magnesium-free phosphate buffered saline, Biochrom, Germany), trypsinized and subplated on poly-D-lysine pre-coated 96-well plates (Greiner, Germany) at a density of 40,000 cells/well. 24 h after establishing the secondary culture the astrocytes are rinsed with PBS^++ (phosphate buffered saline, Biochrom, Germany) and fed with astrocyte-defined medium (ADM) consisting of DMEM containing 1×G5-supplement (Invitrogen, Germany), 0.5 μg/ml heparan sulfate, and 1.5 μg/ml fibronectin (both Sigma, Germany) (Miller et al., (1993) Brain Res. 618(1):175-8). 3 d later the medium is exchanged and the cells incubated for another 2-3 d, so that at the time of experiments astrocytes are 14-15 DIV.
Cytosolic Calcium Studies with Astrocytes:
The increase of cytosolic calcium after stimulation with the mGluR5 agonist L-quisqualate is measured using a fluorometric imaging plate reader (FLIPR) and the Ca-Kit (both Molecular Devices). Prior to addition of agonist or antagonist the medium is aspirated and cells are loaded for 2 h at RT with 150 μl of loading buffer consisting of Ca-sensitive dye reconstituted in sodium chloride (123 mM), potassium chloride (5.4 mM), magnesium chloride (0.8 mM), calcium chloride (1.8 mM), D-glucose (15 mM), and HEPES (20 mM), pH 7.3. Subsequently, plates are transferred to FLIPR to detect calcium increase with the addition of L-quisqualate (100 nM) measured as relative fluorescence units (RFU). If antagonists are tested, these compounds are pre-incubated for 10 minutes at RT before addition of the respective agonist.
(§1) The fluorescence signal increase after addition of agonist reflects the increase of cytosolic calcium. Inconsistencies in the amount of cells per well are normalised by using the spatial uniformity correction of the FLIPR software. The mean of replicated temporal data (n=3-5) is calculated and used for graphical representation. For the evaluation of the pharmacology, the calcium changes in response to different concentrations of agonist or antagonist are determined using a maximum minus minimum (MaxMin) calculation.
(§2) All responses (RFU-values) are determined as percentage of control (=maximum response). EC50 and IC50 are calculated according the logistic equation using GraFit 5.0 (Erithacus Software, GB) or Prism 4.0 (GraphPad Software, USA).

[2] = target: T3, metabotropic glutamate receptor (mGluR5) (Homo sapiens, UniProt P41594); assay: Cytosolic calcium studies with stably transfected cells (FLIPR, CHO-K1); format: cell-based; design: expressed in transfected cells; host or cells: CHO-K1 cells (IPTG-inducible expression); conditions: CHO-K1 cells expressing human mGluR5; agonist L-quisqualic acid at 80% of maximal signal; negative modulation; read-out: mGluR5_FLIPR_h_CHO_NAM— IC50
T3 sequence (P41594 21-1212): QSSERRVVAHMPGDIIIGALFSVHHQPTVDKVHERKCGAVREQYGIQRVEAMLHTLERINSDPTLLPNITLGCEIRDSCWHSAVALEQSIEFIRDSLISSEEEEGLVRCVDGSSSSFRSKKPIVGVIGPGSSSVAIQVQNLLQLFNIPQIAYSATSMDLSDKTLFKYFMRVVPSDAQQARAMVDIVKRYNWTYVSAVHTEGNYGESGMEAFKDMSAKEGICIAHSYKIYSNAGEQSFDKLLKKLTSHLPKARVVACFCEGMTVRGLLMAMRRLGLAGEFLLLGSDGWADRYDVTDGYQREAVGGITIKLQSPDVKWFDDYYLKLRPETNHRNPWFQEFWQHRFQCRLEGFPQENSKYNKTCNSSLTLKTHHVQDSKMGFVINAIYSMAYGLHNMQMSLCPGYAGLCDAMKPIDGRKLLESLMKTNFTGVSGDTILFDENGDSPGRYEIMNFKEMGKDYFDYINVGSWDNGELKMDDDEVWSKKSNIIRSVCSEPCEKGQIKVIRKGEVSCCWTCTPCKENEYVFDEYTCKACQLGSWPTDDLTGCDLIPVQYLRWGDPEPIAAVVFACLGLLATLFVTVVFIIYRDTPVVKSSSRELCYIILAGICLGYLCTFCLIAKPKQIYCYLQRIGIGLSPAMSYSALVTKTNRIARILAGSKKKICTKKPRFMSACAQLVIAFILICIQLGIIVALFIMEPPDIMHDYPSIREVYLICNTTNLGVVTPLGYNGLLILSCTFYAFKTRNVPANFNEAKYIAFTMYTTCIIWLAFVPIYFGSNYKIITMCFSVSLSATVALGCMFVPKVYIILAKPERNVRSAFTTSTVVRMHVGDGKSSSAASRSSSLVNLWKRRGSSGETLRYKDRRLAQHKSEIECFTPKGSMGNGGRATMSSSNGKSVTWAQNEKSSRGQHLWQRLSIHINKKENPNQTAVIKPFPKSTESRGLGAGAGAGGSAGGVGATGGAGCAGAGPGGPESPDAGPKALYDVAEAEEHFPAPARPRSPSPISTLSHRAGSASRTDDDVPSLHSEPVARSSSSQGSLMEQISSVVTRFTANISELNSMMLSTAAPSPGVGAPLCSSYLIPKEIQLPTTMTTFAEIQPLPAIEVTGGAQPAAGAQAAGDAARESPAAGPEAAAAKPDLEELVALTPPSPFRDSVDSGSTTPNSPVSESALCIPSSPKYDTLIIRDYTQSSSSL
Protocol: Cytosolic Calcium Studies with Stably Transfected Cells:
Chinese hamster ovary cells (CHO-K1 cells), stably transfected for inducible expression of a human metabotropic glutamate receptor mGluR5, are seeded into black clear bottom 96 well plates at a density of 35.000 cells per well. The standard growth medium used (Dulbecco's modified Eagle Medium, DMEM plus L-proline) contains the appropriate inducer isopropyl-β-D-thiogalactopyranosid (IPTG) to achieve optimal receptor expression. One day after seeding the growth medium is exchanged for reconstituted Ca-Kit (Molecular Devices, USA) and incubated for one hour. Ca-Kit is reconstituted in an assay buffer containing 20 mM HEPES pH 7.4, glutamic-pyruvate transaminase, pyridoxal phosphate and sodium pyruvate in Hank's balanced salt solution (HBBS). Agonistic compounds to the receptor elicit increases in cytosolic calcium which can be measured as increases in fluorescence signals by use of a fluorescence imaging plate reader (Molecular Devices).
as §1, §2

[3] = target: T3, metabotropic glutamate receptor (mGluR5); assay: Activity as mGluR5 modulator (test not specified); conditions: for activity as metabotropic glutamate receptor (mGluR5) modulator: prior-art compounds

T1 sequence (P31424 21-1203): as the sequence (P31424 21-1203) above

SMILES | IC50 [1] [nM] | IC50 (mGluR5 receptors) [nM] | IC50 [2] [nM] | melting point [°C] | activity as metabotropic glutamate receptor (mGluR5) modulator [3] | selectivity ([3]; prior-art compound)
CC1c2ccsc2CCN1C(=O)c1cc2ncc(Br)cn2n1 (stereo not shown) [Example 1, 6-Bromo-2-[(4-methyl-6,7-dihydrothieno[3,2-c]pyridin-5(4H)-yl)carbonyl]pyrazolo[1,5-a]pyrimidine] | 80 | 23 | 80.7 |  |  | 
CC1c2ccsc2CCN1C(=O)c1cc2ncc(Cl)cn2n1 (stereo not shown) [Example 2, (6-Chloro-pyrazolo[1,5-a]pyrimidin-2-yl)-(4-methyl-6,7-dihydro-4H-thieno[3,2-c]pyridin-5-yl)-methanone] | 55 | 24 | 44 |  |  | 
CCC1c2ccsc2CCN1C(=O)c1cc2ncc(Br)cn2n1 (stereo not shown) [Example 9, (6-Bromo-pyrazolo[1,5-a]pyrimidin-2-yl)-(4-ethyl-6,7-dihydro-4H-thieno[3,2-c]pyridin-5-yl)-methanone] | 117 | 21 | 63.6 |  |  | 
CCC1c2ccsc2CCN1C(=O)c1cc2ncc(Cl)cn2n1 (stereo not shown) [Example 10, (6-Chloro-pyrazolo[1,5-a]pyrimidin-2-yl)-(4-ethyl-6,7-dihydro-4H-thieno[3,2-c]pyridin-5-yl)-methanone] | 150 | 21 | 82 |  |  | 
CC1c2ccoc2CCN1C(=O)c1cc2ncc(Br)cn2n1 (stereo not shown) [Example 28, 6-Bromo-2-[(4-methyl-6,7-dihydrofuro[3,2-c]pyridin-5(4H)-yl)carbonyl]pyrazolo[1,5-a]pyrimidine] | 214 | 80.5 | 107 |  |  | 
CC1c2ccoc2CCN1C(=O)c1cc2ncc(Cl)cn2n1 (stereo not shown) [Example 29, 6-Chloro-2-[(4-methyl-6,7-dihydrofuro[3,2-c]pyridin-5(4H)-yl)carbonyl]pyrazolo[1,5-a]pyrimidine] | 110 | 64 | 206 |  |  | 
O=C(c1cc2ncc(Br)cn2n1)N1CCCCC1 [Example B308, (6-Bromopyrazolo[1,5-a]pyrimidin-2-yl)-piperidin-1-yl-methanone] |  |  |  |  | no particular activity | 
O=C(c1cc2ncc(Br)cn2n1)N1CCOCC1 [Example B310, (6-Bromopyrazolo[1,5-a]pyrimidin-2-yl)-morpholin-4-yl-methanone] |  |  |  |  | no particular activity | 
O=C(c1cc2ncc(Br)cn2n1)N1CCc2ccccc2C1 [M, (6-Bromo-pyrazolo[1,5-a]pyrimidin-2-yl)-(1,2,3,4-tetrahydro-isoquinolin-2-yl)-methanon] |  |  |  |  | only a limited activity | not selective

Next, values leading:

IC50 [1] [nM] | IC50 (mGluR5 receptors) [nM] | IC50 [2] [nM] | melting point [°C] | activity as metabotropic glutamate receptor (mGluR5) modulator [3] | selectivity ([3]; prior-art compound) | SMILES
12 | 22.8 | 104 |  |  |  | Cc1cc2c(s1)CCN(C(=O)c1cc3ncc(Br)cn3n1)C2C (stereo not shown) [Example 15, (6-Bromo-pyrazolo[1,5-a]pyrimidin-2-yl)-(2,4-dimethyl-6,7-dihydro-4H-thieno[3,2-c]pyridin-5-yl)-methanone]
20 | 21 | 92.9 |  |  |  | Cc1cc2c(s1)CCN(C(=O)c1cc3ncc(Cl)cn3n1)C2C (stereo not shown) [Example 16, (6-Chloro-pyrazolo[1,5-a]pyrimidin-2-yl)-(2,4-dimethyl-6,7-dihydro-4H-thieno[3,2-c]pyridin-5-yl)-methanone]
 |  | 4420 | 136 to 137 |  |  | C[C@H]1c2ccsc2CCN1C(=O)c1cc2ncc(Br)cn2n1 [Example 41, (6-Bromo-pyrazolo[1,5-a]pyrimidin-2-yl)-(4-methyl-6,7-dihydro-4H-thieno[3,2-c]pyridin-5-yl)-methanone]
10 | 20 | 23.4 | 142 to 144 |  |  | C[C@@H]1c2ccsc2CCN1C(=O)c1cc2ncc(Br)cn2n1 [Example 42, (6-Bromo-pyrazolo[1,5-a]pyrimidin-2-yl)-(4-methyl-6,7-dihydro-4H-thieno[3,2-c]pyridin-5-yl)-methanone]
17 | 36 | 147 |  |  |  | Cc1cc2c(o1)CCN(C(=O)c1cc3ncc(Br)cn3n1)C2C (stereo not shown) [Example 44, (6-Bromo-pyrazolo[1,5-a]pyrimidin-2-yl)-(2,4-dimethyl-6,7-dihydro-4H-furo[3,2-c]pyridin-5-yl)-methanone]
